Test results from the supplement of paper PMC11061612.

Key:
Assay in all cases: Bliss excess, mean over the matrix (fraction); higher = more synergy
[1] = system: OPM-2 (Plasma Cell Myeloma)
Summary of the method: (§1)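 Bliss excess equals the observed combination effect minus the expected value EA + EB − EA·EB, where EA and EB are the effects of each agent alone. Combination Emax is the second-highest inhibition within the matrix. Inhibition was scaled from CellTiter-Glo 2.0 luminescence, with 0 set by vehicle wells and 1 by blank wells, after 72 hours of two-drug dosing of cells plated in 1536-well plates.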

[2] = system: TE-8 (Esophageal Squamous Cell Carcinoma)
Summary of the method: as §1

[3] = system: RKN (Other Solid Carcinomas)
Summary of the method: as §1

[4] = system: PC-3_[JPC-3] (Lung Adenocarcinoma)
Summary of the method: as §1

[5] = system: RCM-1 (Colorectal Carcinoma)
Summary of the method: as §1

[6] = system: MFE-280 (Endometrial Carcinoma)
Summary of the method: as §1

[7] = system: CAL-62 (Thyroid Gland Carcinoma)
Summary of the method: as §1

[8] = system: NCI-H2342 (Lung Adenocarcinoma)
Summary of the method: as §1

Row | SMILES | Bliss excess [1] | Bliss excess [2] | Bliss excess [3] | Bliss excess [4] | Bliss excess [5] | Bliss excess [6] | Bliss excess [7] | Bliss excess [8]
1 | C=CCn1c(=O)c2cnc(Nc3ccc(N4CCN(C)CC4)cc3)nc2n1-c1cccc(C(C)(C)O)n1 [AZD1775] + CCc1c2c(nc3ccc(O)cc13)-c1cc3c(c(=O)n1C2)COC(=O)[C@]3(O)CC [SN-38] (first compound max 1 µM, partner max 0.3 µM) | 0.0117 | 0.0659 | 0.0378 | -0.0575 | -0.0402 | -0.0149 | -0.0489 | 0.0025
2 | C=CCn1c(=O)c2cnc(Nc3ccc(N4CCN(C)CC4)cc3)nc2n1-c1cccc(C(C)(C)O)n1 [AZD1775] + Nc1ccn([C@@H]2O[C@H](CO)[C@@H](O)C2(F)F)c(=O)n1 [Gemcitabine] (first compound max 1 µM, partner max 0.3 µM) | 0.0255 | -0.0247 | 0.0082 | -0.035 | 0.0233 | -0.0175 | -0.0162 | 0.0724
3 | CN(CCO)CC[C@H](CSc1ccccc1)Nc1ccc(S(=O)(=O)NC(=O)c2ccc(N3CCC([C@@H](O)c4ccccc4-c4ccc(Cl)cc4)CC3)cc2)cc1S(=O)(=O)C(F)(F)F [AZD4320] + CC(=O)O[C@H]1C(=O)[C@@]2(C)[C@H]([C@H](OC(=O)c3ccccc3)[C@]3(O)C[C@H](OC(=O)[C@H](O)[C@@H](NC(=O)c4ccccc4)c4ccccc4)C(C)=C1C3(C)C)[C@]1(OC(C)=O)CO[C@@H]1C[C@@H]2O [Paclitaxel] (first compound max 1 µM, 7x7, partner max 3 µM) | 0.023 | 0.0954 | 0.0901 | 0.0232 | 0.0793 | 0.171 | 0.0036 | 0.0455
4 | CN(CCO)CC[C@H](CSc1ccccc1)Nc1ccc(S(=O)(=O)NC(=O)c2ccc(N3CCC([C@@H](O)c4ccccc4-c4ccc(Cl)cc4)CC3)cc2)cc1S(=O)(=O)C(F)(F)F [AZD4320] + CS(=O)(=O)CCNCc1ccc(-c2ccc3ncnc(Nc4ccc(OCc5cccc(F)c5)c(Cl)c4)c3c2)o1 [Lapatinib] (first compound max 1 µM, 7x7, partner max 10 µM) | 0.0503 | 0.0281 | -0.0121 | -0.0108 | 0.0202 | 0.0411 | 0.0444 | -0.0137
5 | CN(CCO)CC[C@H](CSc1ccccc1)Nc1ccc(S(=O)(=O)NC(=O)c2ccc(N3CCC([C@@H](O)c4ccccc4-c4ccc(Cl)cc4)CC3)cc2)cc1S(=O)(=O)C(F)(F)F [AZD4320] + Nc1ccn([C@@H]2O[C@H](CO)[C@@H](O)C2(F)F)c(=O)n1 [Gemcitabine] (first compound max 1 µM, 7x7, partner max 0.3 µM) | 0.0089 | 0.0054 | -0.0164 | 0.016 | -0.0271 | -0.0216 | 0.0487 | 0.0364
6 | Cc1c2c(nn1C)CSCc1cc(n(C)n1)CSc1cc(c3ccccc3c1)OCCCc1c(C(=O)O)n(C)c3c-2c(Cl)ccc13 [AZD5991] + CC(=O)O[C@H]1C(=O)[C@@]2(C)[C@H]([C@H](OC(=O)c3ccccc3)[C@]3(O)C[C@H](OC(=O)[C@H](O)[C@@H](NC(=O)c4ccccc4)c4ccccc4)C(C)=C1C3(C)C)[C@]1(OC(C)=O)CO[C@@H]1C[C@@H]2O [Paclitaxel] (first compound max 1 µM, 7x7, partner max 3 µM) | 0.0072 | -0.0041 | -0.0775 | -0.0256 | 0.0336 | -0.0363 | -0.0941 | 0.082
7 | Cc1c2c(nn1C)CSCc1cc(n(C)n1)CSc1cc(c3ccccc3c1)OCCCc1c(C(=O)O)n(C)c3c-2c(Cl)ccc13 [AZD5991] + CS(=O)(=O)CCNCc1ccc(-c2ccc3ncnc(Nc4ccc(OCc5cccc(F)c5)c(Cl)c4)c3c2)o1 [Lapatinib] (first compound max 1 µM, 7x7, partner max 10 µM) | -0.0145 | 0.0014 | -0.0174 | 0.0072 | 0.0137 | -0.012 | -0.0118 | 0.012
8 | Cc1c2c(nn1C)CSCc1cc(n(C)n1)CSc1cc(c3ccccc3c1)OCCCc1c(C(=O)O)n(C)c3c-2c(Cl)ccc13 [AZD5991] + Nc1ccn([C@@H]2O[C@H](CO)[C@@H](O)C2(F)F)c(=O)n1 [Gemcitabine] (first compound max 1 µM, 7x7, partner max 0.3 µM) | 0.0109 | -0.0682 | -0.0708 | -0.0333 | 0.0164 | -0.0363 | -0.024 | 0.0488
9 | C[C@@H]1COCCN1c1cc(C2([S@](C)(=N)=O)CC2)nc(-c2ccnc3[nH]ccc23)n1 [AZD6738] + C1CC(C1)(C(=O)[O-])C(=O)[O-].N.N.[Pt+2] [Carboplatin] (first compound max 10 µM, 7x7, partner max 10 µM) | -0.051 | -0.0806 | -0.0615 | -0.0326 | -0.0443 | -0.0617 | -0.0402 | -0.0422
10 | C[C@@H]1COCCN1c1cc(C2([S@](C)(=N)=O)CC2)nc(-c2ccnc3[nH]ccc23)n1 [AZD6738] + Nc1ccn([C@@H]2O[C@H](CO)[C@@H](O)C2(F)F)c(=O)n1 [Gemcitabine] (first compound max 10 µM, 7x7, partner max 0.3 µM) | 0.0289 | 0.0028 | 0.0982 | 0.0434 | 0.0156 | 0.0731 | -0.0064 | 0.086
11 | Cc1cc2ncnn2cc1Nc1ncc2c(n1)n(C1CCOCC1)c(=O)n2C [AZD7648] + COc1cc([C@@H]2c3cc4c(cc3[C@@H](O[C@@H]3O[C@@H]5CO[C@@H](C)O[C@H]5[C@H](O)[C@H]3O)[C@H]3COC(=O)[C@H]23)OCO4)cc(OC)c1O [Etoposide] (first compound max 10 µM, 7x7, partner max 10 µM) | -0.0072 | 0.0501 | 0.0299 | 0.0079 | 0.0309 | -0.0236 | 0.127 | 0.0597
12 | C[C@@H](Nc1cc(F)cc(F)c1)c1cc(C(=O)N(C)C)cc2c(=O)cc(N3CCOCC3)oc12 [AZD8186] + C1CN(CCC1(C(=O)N[C@@H](CCO)C2=CC=C(C=C2)Cl)N)C3=NC=NC4=C3C=CN4 [AZD5363] (first compound max 10 µM, 7x7, partner max 10 µM) | -0.0756 | -0.0543 | -0.0448 | -0.0245 | 0.0062 | -0.0505 | -0.0203 | 0.0003
13 | C[C@@H](Nc1cc(F)cc(F)c1)c1cc(C(=O)N(C)C)cc2c(=O)cc(N3CCOCC3)oc12 [AZD8186] + CC(=O)c1c(C)c2cnc(Nc3ccc(N4CCNCC4)cn3)nc2n(C2CCCC2)c1=O [Palbociclib] (first compound max 10 µM, 7x7, partner max 10 µM) | 0.0338 | -0.0495 | -0.0328 | -0.023 | -0.0077 | -0.0424 | 0.0294 | 0.0877
14 | C[C@@H](Oc1cc(-c2cnn(C3CCNCC3)c2)cnc1N)c1c(Cl)ccc(F)c1Cl [Crizotinib] + CC1=C(C(=CC=C1)Cl)NC(=O)C2=CN=C(S2)NC3=CC(=NC(=N3)C)N4CCN(CC4)CCO [Dasatinib] (first compound max 10 µM, 7x7, partner max 2 µM) | 0 | 0.0208 | 0.0179 | -0.0005 | -0.0081 | 0.0091 | 0.0464 | -0.0108
15 | C[C@@H](Oc1cc(-c2cnn(C3CCNCC3)c2)cnc1N)c1c(Cl)ccc(F)c1Cl [Crizotinib] + Cn1cnc2c(F)c(Nc3ccc(Br)cc3Cl)c(C(=O)NOCCO)cc21 [Selumetinib] (first compound max 10 µM, 7x7, partner max 10 µM) | -0.0463 | -0.0898 | 0.0181 | -0.0549 | -0.0089 | -0.0544 | -0.0219 | -0.0267
16 | CS(=O)(=O)CCNCc1ccc(-c2ccc3ncnc(Nc4ccc(OCc5cccc(F)c5)c(Cl)c4)c3c2)o1 [Lapatinib] + Cn1cnc2c(F)c(Nc3ccc(Br)cc3Cl)c(C(=O)NOCCO)cc21 [Selumetinib] (first compound max 10 µM, 7x7, partner max 10 µM) | -0.0294 | -0.0505 | -0.0081 | -0.0292 | 0.0661 | -0.063 | -0.0284 | -0.0418
17 | O=C(c1cc(Cc2n[nH]c(=O)c3ccccc23)ccc1F)N1CCN(C(=O)C2CC2)CC1 [Olaparib] + CC1(C)CCC(CN2CCN(c3ccc(C(=O)NS(=O)(=O)c4ccc(NCC5CCOCC5)c([N+](=O)[O-])c4)c(Oc4cnc5[nH]ccc5c4)c3)CC2)=C(c2ccc(Cl)cc2)C1 [Venetoclax] (first compound max 10 µM, 7x7, partner max 1 µM) | 0.0309 | -0.0825 | -0.0305 | -0.0354 | -0.0304 | -0.053 | -0.0329 | -0.0201
18 | O=C(c1cc(Cc2n[nH]c(=O)c3ccccc23)ccc1F)N1CCN(C(=O)C2CC2)CC1 [Olaparib] + CN(CC[C@H](CSC1=CC=CC=C1)NC2=C(C=C(C=C2)S(=O)(=O)NC(=O)C3=CC=C(C=C3)N4CCC(CC4)[C@H](C5=CC=CC=C5C6=CC=C(C=C6)Cl)O)S(=O)(=O)C(F)(F)F)CCO [AZD4320] (first compound max 10 µM, 7x7, partner max 1 µM) | 0.0334 | -0.0869 | -0.0407 | -0.0525 | -0.0431 | 0.0045 | -0.042 | -0.018
19 | O=C(c1cc(Cc2n[nH]c(=O)c3ccccc23)ccc1F)N1CCN(C(=O)C2CC2)CC1 [Olaparib] + COc1nnc2ccc(N3CCC(c4ccc(OCCN5CCN(C)C(=O)[C@H]5C)cc4)CC3)nn12 [AZD5153] (first compound max 10 µM, 7x7, partner max 1 µM) | 0.0122 | -0.0706 | 0.0101 | -0.0518 | -0.0473 | -0.0147 | -0.0556 | -0.0253
20 | O=C(c1cc(Cc2n[nH]c(=O)c3ccccc23)ccc1F)N1CCN(C(=O)C2CC2)CC1 [Olaparib] + Cc1c2c(nn1C)CSCc1cc(n(C)n1)CSc1cc(c3ccccc3c1)OCCCc1c(C(=O)O)n(C)c3c-2c(Cl)ccc13 [AZD5991] (first compound max 10 µM, 7x7, partner max 1 µM) | 0.0251 | -0.0467 | -0.0443 | -0.0456 | -0.0412 | -0.0341 | -0.0483 | -0.0462
21 | N#Cc1cnc(Nc2cc(NC[C@H]3CNCCO3)c(C(F)(F)F)cn2)cn1 [SRA737] + C=CCn1c(=O)c2cnc(Nc3ccc(N4CCN(C)CC4)cc3)nc2n1-c1cccc(C(C)(C)O)n1 [AZD1775] (first compound max 10 µM, partner max 1 µM) | 0.106 | -0.0377 | 0.0124 | -0.0239 | 0.0488 | 0.0289 | 0.043 | 0.0225
